Measurements: patent US7928107B2, “Quinazolines useful as modulators of ion channels” (Vertex Pharmaceuticals Incorporated, priority 2004, dated 2011)

Molecular target: NaV 1.8 channel (Homo sapiens, UniProt Q9Y5Y9)
Experiment: Activity against NaV 1.8 channel (optical membrane potential assay)
Type: cell-based
Outline: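 FRET membrane-potential assay (coumarin CC2-DMPE donor, oxonol DiSBAC2(3) acceptor plus veratridine) on VIPR; compound added with oxonol for 20–30 min before Na+ add-back stimulation. Activity from background-subtracted 460/580 nm ratio change (baseline 2–7 s, response 15–24 s) relative to tetracaine positive and drug-free negative controls.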

NaV 1.8 channel, sequence (Q9Y5Y9 whole entry): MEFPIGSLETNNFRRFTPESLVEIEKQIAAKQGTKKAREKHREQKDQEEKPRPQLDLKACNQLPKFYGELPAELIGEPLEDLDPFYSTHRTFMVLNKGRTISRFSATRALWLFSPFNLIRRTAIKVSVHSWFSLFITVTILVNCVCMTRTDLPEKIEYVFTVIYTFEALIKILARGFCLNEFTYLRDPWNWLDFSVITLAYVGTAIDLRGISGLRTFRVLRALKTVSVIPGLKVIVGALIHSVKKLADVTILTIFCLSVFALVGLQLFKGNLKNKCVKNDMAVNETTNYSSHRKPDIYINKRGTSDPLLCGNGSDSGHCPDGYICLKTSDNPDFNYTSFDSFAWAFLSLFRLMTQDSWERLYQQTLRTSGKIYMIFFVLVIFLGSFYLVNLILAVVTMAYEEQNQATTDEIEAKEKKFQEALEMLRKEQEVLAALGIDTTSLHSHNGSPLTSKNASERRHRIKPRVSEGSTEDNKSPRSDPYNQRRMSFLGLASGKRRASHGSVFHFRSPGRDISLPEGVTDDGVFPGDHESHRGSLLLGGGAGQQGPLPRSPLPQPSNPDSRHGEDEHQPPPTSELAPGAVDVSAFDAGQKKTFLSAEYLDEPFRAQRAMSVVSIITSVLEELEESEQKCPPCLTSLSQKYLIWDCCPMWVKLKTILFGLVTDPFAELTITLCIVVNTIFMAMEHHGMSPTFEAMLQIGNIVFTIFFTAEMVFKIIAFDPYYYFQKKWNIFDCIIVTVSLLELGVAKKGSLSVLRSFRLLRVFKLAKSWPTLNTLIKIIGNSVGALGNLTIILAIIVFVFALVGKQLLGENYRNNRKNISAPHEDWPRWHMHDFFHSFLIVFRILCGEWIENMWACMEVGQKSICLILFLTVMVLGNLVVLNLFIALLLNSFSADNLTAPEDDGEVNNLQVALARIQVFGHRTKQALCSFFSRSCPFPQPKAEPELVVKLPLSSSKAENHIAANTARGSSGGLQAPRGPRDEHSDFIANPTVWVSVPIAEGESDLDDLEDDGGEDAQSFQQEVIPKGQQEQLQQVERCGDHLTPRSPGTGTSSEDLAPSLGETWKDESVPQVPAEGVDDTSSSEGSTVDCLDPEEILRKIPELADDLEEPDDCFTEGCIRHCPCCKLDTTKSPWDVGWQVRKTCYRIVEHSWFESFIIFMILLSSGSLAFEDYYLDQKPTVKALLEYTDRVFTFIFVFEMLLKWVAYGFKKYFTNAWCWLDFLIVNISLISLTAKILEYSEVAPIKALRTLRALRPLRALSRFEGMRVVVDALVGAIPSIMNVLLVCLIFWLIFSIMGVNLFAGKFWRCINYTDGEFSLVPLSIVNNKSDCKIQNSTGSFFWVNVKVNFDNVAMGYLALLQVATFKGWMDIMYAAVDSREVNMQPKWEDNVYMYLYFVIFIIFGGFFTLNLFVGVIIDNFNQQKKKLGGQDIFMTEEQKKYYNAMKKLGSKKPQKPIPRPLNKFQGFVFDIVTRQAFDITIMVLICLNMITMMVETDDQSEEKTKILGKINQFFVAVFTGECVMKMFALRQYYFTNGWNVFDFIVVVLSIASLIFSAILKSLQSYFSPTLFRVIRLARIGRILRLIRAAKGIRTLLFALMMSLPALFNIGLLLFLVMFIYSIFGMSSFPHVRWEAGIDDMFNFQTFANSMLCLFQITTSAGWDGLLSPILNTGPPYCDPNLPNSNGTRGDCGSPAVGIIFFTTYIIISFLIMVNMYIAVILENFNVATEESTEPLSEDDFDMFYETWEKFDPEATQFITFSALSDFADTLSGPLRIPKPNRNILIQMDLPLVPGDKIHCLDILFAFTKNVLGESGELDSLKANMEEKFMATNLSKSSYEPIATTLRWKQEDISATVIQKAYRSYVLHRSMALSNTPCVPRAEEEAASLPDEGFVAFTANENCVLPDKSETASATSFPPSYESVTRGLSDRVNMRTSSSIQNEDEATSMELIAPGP

Structure (SMILES) | IC50 [µM]
Cc1ccc2c(N3CCN(C(=O)[C@@H](O)Cc4ccccc4)CC3)nc(-c3ccccc3O)nc2c1 [Example 131, (S)-2-Hydroxy-1-{4-[2-(2-hydroxy-phenyl)-7-methyl-quinazolin-4-yl]-piperazin-1-yl}-3-phenylpropan-1-one] | > 10
Cc1ccc2c(N3CCN(C(=O)C(O)c4ccc(F)cc4)CC3)nc(-c3c(O)cccc3F)nc2c1 (stereo not shown) [Example 167, 1-(4-(2-(2-Fluoro-6-hydroxyphenyl)-7-methylquinazolin-4-yl)piperazin-1-yl)-2-(4-fluorophenyl)-2-hydroxyethanone] | > 10
Cc1ccc2c(N3CC[C@@H](NC(=O)CCc4cccnc4)C3)nc(-c3ccccc3O)nc2c1 [Example 322, N—((R)-1-(2-(2-Hydroxyphenyl)-7-methylquinazolin-4-yl)pyrrolidin-3-yl)-3-(pyridin-3-yl)propanamide] | > 10
O=C(OCc1ccncc1)N1CCN(c2nc(-c3ccccc3O)nc3ccccc23)CC1 [Example 116, (Pyridin-4-yl)methyl 4-(2-(2-hydroxyphenyl)quinazolin-4-yl)piperazine-1-carboxylate] | 2 to 10
CCOC(=O)NC[C@@H]1CCN(c2nc(-c3ccccc3O)nc3cc(C)ccc23)C1 [Example 364, Ethyl ((S)-1-(2-(2-hydroxyphenyl)-7-methylquinazolin-4-yl)pyrrolidin-3-yl)methylcarbamate] | < 2
CCCC(O)C(=O)NC1CCN(c2nc(-c3ccccc3O)nc3cc(C)ccc23)CC1 (stereo not shown) [Example 247, 2-Hydroxy-N-(1-(2-(2-hydroxyphenyl)-7-methylquinazolin-4-yl)piperidin-4-yl)pentanamide] | > 10
COCCOC(=O)NC[C@@H]1CCCN(c2nc(-c3c(O)cccc3F)nc3cc(C)ccc23)C1 [Example 261, 2-Methoxyethyl ((S)-1-(2-(2-fluoro-6-hydroxyphenyl)-7-methylquinazolin-4-yl)piperidin-3-yl)methylcarbamate] | 2 to 10
COCCOC(=O)NC[C@@H]1CCN(c2nc(-c3ccccc3O)nc3ccc(F)cc23)C1 [Example 377, 2-Methoxyethyl ((S)-1-(6-fluoro-2-(2-hydroxyphenyl)quinazolin-4-yl)pyrrolidin-3-yl)methylcarbamate] | 2 to 10
Cc1ccc2c(N3CC[C@H](CNC(=O)O[C@@H]4CCOC4)C3)nc(-c3ccccc3O)nc2c1 [Example 306, (R)-Tetrahydrofuran-3-yl ((R)-1-(2-(2-hydroxyphenyl)-7-methylquinazolin-4-yl)pyrrolidin-3-yl)methylcarbamate] | > 10
Cc1ccc2c(N3CCN(C(=O)[C@H](O)CC(C)C)CC3)nc(-c3ccccc3O)nc2c1 [Example 168, (R)-2-Hydroxy-1-(4-(2-(2-hydroxyphenyl)-7-methylquinazolin-4-yl)piperazin-1-yl)-4-methylpentan-1-one] | 2 to 10
CC(C)(C)[C@H](O)C(=O)N1CCN(c2nc(-c3ccccc3O)nc3ccc(F)cc23)CC1 [Example 139, (S)-1-(4-(6-Fluoro-2-(2-hydroxyphenyl)quinazolin-4-yl)piperazin-1-yl)-2-hydroxy-3,3-dimethylbutan-1-one] | 2 to 10
Cc1ccc2c(N3CCN(C(=O)[C@@H](O)C(C)(C)C)CC3)nc(-c3ccccc3O)nc2c1 [Example 166, (S)-2-Hydroxy-1-(4-(2-(2-hydroxyphenyl)-7-methylquinazolin-4-yl)piperazin-1-yl)-3,3-dimethylbutan-1-one] | > 10
Cc1ccc2c(N3CCC[C@@H](CNC(=O)C4CC4)C3)nc(-c3ccccc3O)nc2c1 [Example 226, N—(((S)-1-(2-(2-Hydroxyphenyl)-7-methylquinazolin-4-yl)piperidin-3-yl)methyl)cyclopropanecarboxamide] | > 10
Cc1ccc2c(N3CCN(C(=O)C(O)c4ccc(F)cc4)CC3)nc(-c3ccccc3O)nc2c1 (stereo not shown) [Example 170, 2-(4-Fluorophenyl)-2-hydroxy-1-(4-(2-(2-hydroxyphenyl)-7-methylquinazolin-4-yl)piperazin-1-yl)ethanone] | > 10
CCC(O)(CC)C(=O)NC1CCN(c2nc(-c3ccccc3O)nc3ccccc23)CC1 [Example 240, 2-Ethyl-2-hydroxy-N-(1-(2-(2-hydroxyphenyl)quinazolin-4-yl)piperidin-4-yl)butanamide] | > 10
Cc1ccc2c(N3CCC(NC(=O)C4CCOCC4)CC3)nc(-c3ccccc3O)nc2c1 [Example 220, Tetrahydro-N-(1-(2-(2-hydroxyphenyl)-7-methylquinazolin-4-yl)piperidin-4-yl)-2H-pyran-4-carboxamide] | > 10
Cc1ccc2c(N3CCN(C(=O)O[C@H]4CCOC4)CC3CO)nc(-c3ccccc3O)nc2c1 (stereo partly drawn) [Example 119, (S)-3-Hydroxymethyl-4-[2-(2-hydroxyphenyl)-7-methyl-quinazolin-4-yl]-piperazine-1-carboxylic acid tetrahydro-furan-3-yl ester] | > 10
Cc1ccc2c(N3CCC(NC(=O)[C@@H](O)CC(C)C)CC3)nc(-c3ccccc3O)nc2c1 [Example 268] | > 10
CCOC(=O)C(=O)N1CCN(c2nc(-c3ccccc3O)nc3cc(C)ccc23)CC1 [Example 195] | < 2
Cc1ccc2c(N3CC[C@@H](NC(=O)CCc4ccccn4)C3)nc(-c3ccccc3O)nc2c1 [Example 318, N—((R)-1-(2-(2-Hydroxyphenyl)-7-methylquinazolin-4-yl)pyrrolidin-3-yl)-3-(pyridin-2-yl)propanamide] | > 10

Second part, the compound after the results:

IC50 [µM] | Structure (SMILES)
2 to 10 | CC(C)C[C@@H](O)C(=O)N1CCN(c2nc(-c3ccccc3O)nc3ccccc23)CC1 [Example 102, (R)-2-Hydroxy-1-(4-(2-(2-hydroxyphenyl)quinazolin-4-yl)piperazin-1-yl)-4-methylpentan-1-one]
> 10 | CCCCC(O)C(=O)NC1CCN(c2nc(-c3ccccc3O)nc3cc(C)ccc23)CC1 (stereo not shown) [Example 245, 2-Hydroxy-N-(1-(2-(2-hydroxyphenyl)-7-methylquinazolin-4-yl)piperidin-4-yl)hexanamide]
2 to 10 | COCCOC(=O)NC[C@@H]1CCN(c2nc(-c3ccccc3O)nc3cc(C)ccc23)C1 [Example 366, 2-Methoxyethyl ((S)-1-(2-(2-hydroxyphenyl)-7-methylquinazolin-4-yl)pyrrolidin-3-yl)methylcarbamate]
2 to 10 | Cc1ccc2c(N3CCN(C(=O)[C@H](O)CC(C)C)CC3)nc(-c3c(O)cccc3F)nc2c1 [Example 147, (R)-1-(4-(2-(2-Fluoro-6-hydroxyphenyl)-7-methylquinazolin-4-yl)piperazin-1-yl)-2-hydroxy-4-methylpentan-1-one]
2 to 10 | CCCC(O)C(=O)N1CCN(c2nc(-c3ccccc3O)nc3ccccc23)CC1 (stereo not shown) [Example 174, 2-Hydroxy-1-(4-(2-(2-hydroxyphenyl)quinazolin-4-yl)piperazin-1-yl)pentan-1-one]
2 to 10 | Cc1ccc2c(N3CCN(C(=O)O[C@@H]4CCOC4)CC3)nc(-c3ccccc3O)nc2c1 [Example 182]
< 2 | Cc1ccc2c(N3CCN(C(=O)[C@H](O)CC(C)(C)C)CC3)nc(-c3ccccc3O)nc2c1 [Example 101, (R)-2-Hydroxy-1-(4-(2-(2-hydroxyphenyl)-7-methylquinazolin-4-yl)piperazin-1-yl)-4,4-dimethylpentan-1-one]
2 to 10 | Cc1ccc2c(N3CCN(C(=O)C(O)CC(C)C)CC3)nc(-c3ccccc3O)nc2c1 (stereo not shown) [Example 180]
> 10 | Cc1ccc2c(N3CCN(C(=O)[C@H](O)Cc4ccccc4)CC3)nc(-c3ccccc3O)nc2c1 [Example 130, (R)-2-Hydroxy-1-{4-[2-(2-hydroxy-phenyl)-7-methyl-quinazolin-4-yl]-piperazin-1-yl}-3-phenylpropan-1-one]
> 10 | Cc1ccc2c(N3CCN(C(=O)[C@H](O)CC(C)C)CC3CO)nc(-c3ccccc3O)nc2c1 (stereo partly drawn) [Example 172, (R)-2-Hydroxy-1-{3-hydroxymethyl-4-[2-(2-hydroxy-phenyl)-7-methyl-quinazolin-4-yl]-piperazin-1-yl}-4-methyl-pentan-1-one]
> 10 | Cc1ccc2c(N3CCN(C(=O)[C@@H](O)Cc4cnc[nH]4)CC3)nc(-c3ccccc3O)nc2c1 [Example 141, (S)-2-Hydroxy-1-(4-(2-(2-hydroxyphenyl)-7-methylquinazolin-4-yl)piperazin-1-yl)-3-(1H-imidazol-5-yl)propan-1-one]
2 to 10 | CC(C)C[C@@H](O)C(=O)N1CCN(c2nc(-c3ccccc3O)nc3ccc(F)cc23)CC1 [Example 143, (R)-1-(4-(6-Fluoro-2-(2-hydroxyphenyl)quinazolin-4-yl)piperazin-1-yl)-2-hydroxy-4-methylpentan-1-one]
> 10 | Cc1ccc2c(N3CC[C@@H](NC(=O)c4cccc(C#N)c4)C3)nc(-c3ccccc3O)nc2c1 [Example 327, 3-Cyano-N—((R)-1-(2-(2-hydroxyphenyl)-7-methylquinazolin-4-yl)pyrrolidin-3-yl)benzamide]
> 10 | O=C(NC[C@@H]1CCN(c2nc(-c3ccccc3O)nc3ccc(F)cc23)C1)O[C@H]1CCOC1 [Example 356, (S)-Tetrahydrofuran-3-yl ((S)-1-(6-fluoro-2-(2-hydroxyphenyl)quinazolin-4-yl)pyrrolidin-3-yl)methylcarbamate]
< 2 | Cc1ccc2c(N3CCN(C(=O)CCC4CCCC4)CC3)nc(-c3ccccc3O)nc2c1 [Example 127, 3-Cyclopentyl-1-(4-(2-(2-hydroxyphenyl)-7-methylquinazolin-4-yl)piperazin-1-yl)propan-1-one]
2 to 10 | Cc1ccc2c(N3CC[C@@H](NC(=O)CC4CCOCC4)C3)nc(-c3ccccc3O)nc2c1 [Example 317, 2-(Tetrahydro-2H-pyran-4-yl)-N—((R)-1-(2-(2-hydroxyphenyl)-7-methylquinazolin-4-yl)pyrrolidin-3-yl)acetamide]
2 to 10 | Cc1ccc2c(N3CCN(C(=O)OCc4ccccc4)CC3CO)nc(-c3ccccc3O)nc2c1 (stereo not shown) [Example 157, 3-Hydroxymethyl-4-[2-(2-hydroxy-phenyl)-7-methyl-quinazolin-4-yl]-piperazine-1-carboxylic acid benzyl ester]
